Assays:
[1] = test system: VEC/SMC-HCM insert (HUVEC / HUASMC vascular wall model); conditions: histamine 10 μM or 100 μM, incubated 120 minutes, FIG. 10
Procedure: • (1) 2 mg of FITC-dextran 70 (70 kDa, Sigma) was dissolved in 8 ml of HBSS (+) (084-08965, Wako), to prepare a 250 μg/ml FITC-dextran 70 solution. The FITC-dextran 70 solution was stored in a light-shielded condition. […] The 96-well black plate was light-shielded by being covered with an aluminum sheet. • (9) The fluorescent intensity of the FITC in each sample liquid was measured using a plate reader (ENSPIRE, PerkinElmer) with an excitation wavelength (Ex) of 485 nm and an emission wavelength (Em) of 530 nm.

[2] = test system: cell layered body of rat vascular endothelial cells and rat smooth muscle cells on HCM; test: Evaluation of response to physiologically active substance (thrombin) by microscopy of the cell layered body; type: cell-based; conditions: 37° C., 30 minutes
Procedure: • (1) 0.1 mg (100 units) of thrombin (#T7009-100UN, Sigma) was dissolved in 100 μl of physiological saline to prepare a thrombin solution at a concentration of 1000 U/mL. […] The micrograph of the cell layered body is shown in FIG. 12, which is a superposed image of red fluorescence from VE-cadherin and green fluorescence from α-smooth muscle actin.

| Molecule | FITC-dextran 70 permeability [1] | cell contraction observed under a microscope ([2]; 25 U/mL or 100 U/mL thrombin, FIG. 12) | concentration dependence of cell contraction ([2]; 25 U/mL vs 100 U/mL thrombin) |
| --- | --- | --- | --- |
| NCCc1c[nH]cn1 [histamine, Histamine] | increase in FITC-dextran 70 permeability depending on the concentration of histamine |  |  |
| thrombin |  | cell contraction due to activation of actin stress fibers caused by the addition of thrombin was observed | Higher thrombin concentrations caused stronger cell contractions |

— patent US12313625B2, “Living tissue model device, vascular wall model, vascular wall model device and method of evaluating test substance” (FUJIFILM CORPORATION, priority 2017, dated 2025)
